Experimental data from patent publication US20120135923A1, “Use of Melanocortins to Treat Dyslipidemia” (IPSEN PHARMA, S.A.S., priority 2009, published 2012).
Read-outs that look alike come from different tables or passages of the source. Bridge positions count the residues as written; N and C are the ends. Square brackets hold non-standard residues; d marks the D form. Peptide text beside a SMILES is read from it. d2Nal = N[C@H](Cc1ccc2ccccc2c1)C(=O)O; Bta = N[C@@H](Cc1csc2ccccc12)C(=O)O; βAla = NCCC(=O)O

What was measured:
hMC1-R [1] = target: T1, hMC1-R (Homo sapiens, UniProt Q01726); test: Radioligand binding assay, [125I]-NDP-α-MSH competition, CHO-K1 membranes
T1 construct: expressed in transfected cells; host or cells: CHO-K1
T1 sequence (Q01726 whole entry): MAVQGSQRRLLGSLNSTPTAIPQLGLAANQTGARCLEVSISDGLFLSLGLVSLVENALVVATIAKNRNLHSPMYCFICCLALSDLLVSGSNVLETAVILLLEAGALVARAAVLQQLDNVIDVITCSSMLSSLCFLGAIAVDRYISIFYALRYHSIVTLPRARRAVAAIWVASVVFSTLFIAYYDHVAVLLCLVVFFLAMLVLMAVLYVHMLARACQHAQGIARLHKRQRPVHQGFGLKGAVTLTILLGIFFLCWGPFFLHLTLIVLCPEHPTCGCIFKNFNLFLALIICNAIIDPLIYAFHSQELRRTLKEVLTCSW

hMC3-R [2] = target: T2, hMC3-R (Homo sapiens, UniProt P41968); test: as above
T2 construct: expressed in transfected cells; host or cells: CHO-K1
T2 sequence (P41968 whole entry): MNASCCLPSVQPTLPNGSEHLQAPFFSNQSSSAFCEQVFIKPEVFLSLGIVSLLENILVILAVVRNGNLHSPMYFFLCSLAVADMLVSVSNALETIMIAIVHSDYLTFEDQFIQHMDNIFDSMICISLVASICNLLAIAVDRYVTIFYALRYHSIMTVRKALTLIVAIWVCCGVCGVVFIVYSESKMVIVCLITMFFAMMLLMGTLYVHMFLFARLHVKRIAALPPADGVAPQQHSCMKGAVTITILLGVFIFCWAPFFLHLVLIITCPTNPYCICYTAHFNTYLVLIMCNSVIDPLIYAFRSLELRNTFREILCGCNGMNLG

hMC4-R [3] = target: T3, hMC4-R (Homo sapiens, UniProt P32245); test: as above
T3 construct: expressed in transfected cells; host or cells: CHO-K1
T3 sequence (P32245 whole entry): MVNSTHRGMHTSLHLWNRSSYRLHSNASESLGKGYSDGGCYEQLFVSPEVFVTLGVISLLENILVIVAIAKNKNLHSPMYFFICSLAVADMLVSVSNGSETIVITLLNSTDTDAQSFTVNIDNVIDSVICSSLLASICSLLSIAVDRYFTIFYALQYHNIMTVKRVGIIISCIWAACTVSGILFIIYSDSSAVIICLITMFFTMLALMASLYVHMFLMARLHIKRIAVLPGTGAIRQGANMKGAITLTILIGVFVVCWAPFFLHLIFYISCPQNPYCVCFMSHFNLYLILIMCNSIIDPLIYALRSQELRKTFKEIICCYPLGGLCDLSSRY

hMC5-R [4] = target: T4, hMC5-R (Homo sapiens, UniProt P33032); test: as above
T4 construct: expressed in transfected cells; host or cells: CHO-K1
T4 sequence (P33032 whole entry): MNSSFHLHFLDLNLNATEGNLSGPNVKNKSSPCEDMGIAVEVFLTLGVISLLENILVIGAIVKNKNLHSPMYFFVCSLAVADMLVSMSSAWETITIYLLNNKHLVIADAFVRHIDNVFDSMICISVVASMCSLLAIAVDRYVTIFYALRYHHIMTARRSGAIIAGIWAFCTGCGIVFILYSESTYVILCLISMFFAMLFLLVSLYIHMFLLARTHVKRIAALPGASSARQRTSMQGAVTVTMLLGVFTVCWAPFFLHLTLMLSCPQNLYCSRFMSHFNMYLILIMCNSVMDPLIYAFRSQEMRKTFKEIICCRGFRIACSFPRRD

hMC1-R [5] = target: T1, hMC1-R; test: cyclic AMP bioassay (ECL) in CHO-K1 cells; format: cell-based
Procedure: (§1) Intracellular cyclic AMP (cAMP) levels were determined by an electrochemiluminescence (ECL) assay (Meso Scale Discovery®, Gaithersburg, Md.; referred to hereinafter as MSD). […] Transgenic CHO-K1 cells stably expressing hMC receptor subtypes 1, 3, 4 or 5 were dispensed at a density of approximately 7,000 cells/well in 384-well Multi-Array®plates (MSD) containing integrated carbon electrodes and coated with anti-cAMP antibody. Increasing concentrations of the test compounds were added and the cells were incubated for approximately 40 minutes at approximately 37° C. […] At the end of the second incubation period read buffer (Tris-buffered solution containing an ECL co-reactant and Triton X-100 at ph 7.8) was added and the cAMP levels in the cell lysates were immediately determined by ECL detection with a Sector Imager 6000 Reader® (MSD). Data were analyzed using a computer-assisted non-linear regression analysis (XL fit; IDBS) and reported as either an EC50 value or a Kb value.
(§2) The Kb value reflects the potency of an antagonist and is determined by Schild analysis. In brief, concentration-response curves of an agonist are carried out in the presence of increasing concentrations of an antagonist. […] It is calculated by extrapolating the line on a Schild plot to zero on the y-axis.

hMC3-R [6] = target: T2, hMC3-R; test: cyclic AMP bioassay (ECL) in CHO-K1 cells; format: cell-based
hMC4-R [7] = target: T3, hMC4-R; test: cyclic AMP bioassay (ECL) in CHO-K1 cells; format: cell-based
hMC5-R [8] = target: T4, hMC5-R; test: cyclic AMP bioassay (ECL) in CHO-K1 cells; format: cell-based
Procedure: as §1, §2

[9] = Table 9A/9B, read-out: EC50 hMC1-R
[10] = Table 9A/9B, read-out: EC50 hMC3-R
[11] = Table 9A/9B, read-out: EC50 hMC4-R
[12] = Table 9A/9B, read-out: EC50 hMC5-R

Which results are given for `C[C@@H]1C(=O)N[C@@H](Cc2cnc[nH]2)C(=O)N[C@H](Cc2ccccc2)C(=O)N[C@@H](CCCNC(=N)N)C(=O)N[C@@H](Cc2c[nH]c3ccccc23)C(=O)N[C@H](C(N)=O)CCNC(=O)CC[C@@H]2NC(=O)N1C2=O` [c[Hydantoin(C(O)-(Glu-D-Ala))-His-D-Phe-Arg-Trp-Dab]-NH2]?
Ki (hMC1-R [1]; Table 7, read-out: Ki hMC1): 28 nM; Ki (hMC3-R [2]; Table 7, read-out: Ki hMC3): 90.5 nM; Ki (hMC4-R [3]; Table 7, read-out: Ki hMC4): 12.7 nM; Ki (hMC5-R [4]; Table 7, read-out: Ki hMC5): 877 nM

Which results are given for `CCCC[C@H](NC(C)=O)C(=O)N[C@H]1CSSC[C@@H](C(N)=O)NC(=O)[C@H](Cc2c[nH]c3ccccc23)NC(=O)[C@H](CCCNC(=N)N)NC(=O)[C@@H](Cc2ccc3ccccc3c2)NC(=O)[C@H](Cc2c[nH]cn2)NC(=O)[C@@H](C)NC1=O` [Ac-Nle-c(Cys-D-Ala-His-D-2-Nal-Arg-Trp-Cys)-NH2]?
Ki (hMC4-R [3]; Ki KMC4-R, Table 5): 7.61 nM; Ki (hMC5-R [4]; Ki hMC5-R, Table 5): 102 nM; EC50 (hMC1-R [5]): 17.6 nM; Kb (hMC3-R [6]): 12.4 nM; Kb (hMC4-R [7]): 38.8 nM; EC50 (hMC5-R [8]): 11.8 nM

With `CC(=O)N[C@H]1CSSC[C@@H](C(=O)N2CCC[C@H]2C(=O)N2CCC[C@H]2C(=O)N[C@@H](CCCCN)C(=O)N[C@@H](CC(=O)O)C(N)=O)NC(=O)[C@H](C)NC(=O)[C@H](Cc2csc3ccccc23)NC(=O)[C@H](CCCNC(=N)N)NC(=O)[C@@H](Cc2ccc3ccccc3c2)NC(=O)[C@H](Cc2c[nH]cn2)NC(=O)[C@H](CCC(=O)O)NC1=O` [Ac-c(Cys-Glu-His-D-2-Nal-Arg-Bal-Ala-Cys)-Pro-Pro-Lys-Asp-NH2] (Ac-CEH[d2Nal]R[Bta]ACPPKD-NH2; disulfide 1-8) as the compound, how does the Ki (hMC1-R [1]; Table 6, read-out: Ki hMC1-R) read?
The Ki was 163 nM.

What about the Ki (hMC3-R [2]; Table 6, read-out: Ki hMC3-R) of the same compound?
Its Ki is 23 nM.

And the Ki (hMC4-R [3]; Table 6, read-out: Ki hMC4-R)?
Its Ki is 0.586 nM.

And the Ki (hMC5-R [4]; Table 6, read-out: Ki hMC5-R)?
Its Ki is 844 nM.

With `C[C@@H]1C(=O)N[C@@H](Cc2cnc[nH]2)C(=O)N[C@H](Cc2ccccc2)C(=O)N[C@@H](CCCNC(=N)N)C(=O)N[C@@H](Cc2c[nH]c3ccccc23)C(=O)N[C@H](C(N)=O)CNC(=O)C[C@@H]2NC(=O)N1C2=O` [c[Hydantoin(C(O)-(Asp-D-Ala))-His-D-Phe-Arg-Trp-Dap]-NH2] as the compound, how does the Ki (hMC1-R [1]; Table 7, read-out: Ki hMC1) read?
Its Ki is 66.6 nM.

And the Ki (hMC4-R [3]; Table 7, read-out: Ki hMC4)?
The Ki was 19.9 nM.

What about the EC50 (hMC3-R [6]; Table 11, read-out: EC50 hMC3) of the same compound?
Its EC50 is 49.3 nM.

What about the EC50 (hMC4-R [7]; Table 11, read-out: EC50 hMC4) of the same compound?
The EC50 was 2.12 nM.

`CCCC[C@H](NC(C)=O)C(=O)N[C@H]1CSSC(C)(C)[C@@H](C(=O)O)NC(=O)[C@H](Cc2c[nH]c3ccccc23)NC(=O)[C@H](CCCNC(=N)N)NC(=O)[C@@H](Cc2ccccc2)NC(=O)[C@H](Cc2c[nH]cn2)NC(=O)[C@@H](C)NC1=O` [Ac-Nle-c(Cys-D-Ala-His-D-Phe-Arg-Trp-Pen)-OH] was tested. Which Ki (hMC4-R [3]; Ki KMC4-R, Table 5) did it give?
The Ki was 17.4 nM.

And the Ki (hMC5-R [4]; Ki hMC5-R, Table 5)?
Its Ki is 165 nM.

Which Ki (hMC4-R [3]; Table 5, read-out: Ki KMC4-R) does the source give for `CC(=O)N[C@@H](CC1CCCCC1)C(=O)N[C@H]1CC(=O)NCCCC[C@@H](C(N)=O)NC(=O)CCCNC(=O)[C@H](Cc2c[nH]c3ccccc23)NC(=O)[C@H](CCCNC(=N)N)NC(=O)[C@@H](Cc2ccccc2)NC(=O)[C@H](Cc2c[nH]cn2)NC1=O` [Ac-Cha-c(Asp-His-D-Phe-Arg-Trp-Gaba-Lys)-NH2] here?
Its Ki is 1.49 nM.

What about the EC50 (hMC1-R [5]; [9]) of the same compound?
Its EC50 is 3.26 nM.

What about the EC50 (hMC3-R [6]; [10]) of the same compound?
Its EC50 is 0.189 nM.

And the EC50 (hMC4-R [7]; [11])?
Its EC50 is 0.0949 nM.

What about the EC50 (hMC5-R [8]; [12]) of the same compound?
Its EC50 is 30.2 nM.

With `CCOc1ccc(C[C@H]2NC(=O)[C@H](Cc3c[nH]cn3)NC(=O)[C@@H](NC(=O)[C@H](N)Cc3ccccc3)CSSC[C@H](C(=O)N[C@H](C(N)=O)[C@@H](C)O)NC(=O)CCNC(=O)[C@H](Cc3c[nH]c4ccccc34)NC(=O)[C@H](CCCNC(=N)N)NC2=O)cc1` [D-Phe-c(Cys-His-D-(Et)Tyr-Arg-Trp-β-Ala-D-Cys)-Thr-NH2] (H-[dF]CH[dY](Et)RW[βAla][dC]T-NH2; disulfide 2-8) as the compound, how does the Ki (hMC1-R [1]; Table 5, read-out: Ki hMC1-R) read?
Its Ki is 0.05 nM.

What about the Ki (hMC3-R [2]; Table 5, read-out: Ki hMC3-R) of the same compound?
The Ki was 9.3 nM.

What about the Ki (hMC5-R [4]; Table 5, read-out: Ki hMC5-R) of the same compound?
The Ki was 2.9 nM.

And the EC50 (hMC1-R [5]; [9])?
Its EC50 is 0.35 nM.

And the EC50 (hMC3-R [6]; [10])?
Its EC50 is 1.1 nM.

What about the EC50 (hMC4-R [7]; [11]) of the same compound?
Its EC50 is 0.11 nM.

What about the EC50 (hMC5-R [8]; [12]) of the same compound?
The EC50 was 0.37 nM.

What does the source list for `CC[C@H](C)[C@@H]1NC(=O)N([C@H]2CSSC[C@@H](C(N)=O)NC(=O)[C@H](Cc3c[nH]c4ccccc34)NC(=O)[C@H](CCCNC(=N)N)NC(=O)[C@@H](Cc3ccccc3)NC(=O)[C@H](Cc3cnc[nH]3)NC(=O)[C@@H](C)NC2=O)C1=O` [c[Hydantoin(C(O)-(Ile-Cys))-D-Ala-His-D-Phe-Arg-Trp-Cys]-NH2]?
Ki (hMC1-R [1]; Ki hMC1, Table 7): 53.4 nM; Ki (hMC4-R [3]; Ki hMC4, Table 7): 41.6 nM; EC50 (hMC3-R [6]): 8.51 nM; EC50 (hMC4-R [7]): 1.85 nM
